pIC50: −log10 of the molar value.
How the values were obtained:
[1] = biological target: T1, monoamine oxidase (MAO)-A (Homo sapiens, UniProt P21397); settings: functionally related monoamine oxidase; read-out: IC50 against MAO-A; cited from earlier work
T1 sequence (P21397 1-527): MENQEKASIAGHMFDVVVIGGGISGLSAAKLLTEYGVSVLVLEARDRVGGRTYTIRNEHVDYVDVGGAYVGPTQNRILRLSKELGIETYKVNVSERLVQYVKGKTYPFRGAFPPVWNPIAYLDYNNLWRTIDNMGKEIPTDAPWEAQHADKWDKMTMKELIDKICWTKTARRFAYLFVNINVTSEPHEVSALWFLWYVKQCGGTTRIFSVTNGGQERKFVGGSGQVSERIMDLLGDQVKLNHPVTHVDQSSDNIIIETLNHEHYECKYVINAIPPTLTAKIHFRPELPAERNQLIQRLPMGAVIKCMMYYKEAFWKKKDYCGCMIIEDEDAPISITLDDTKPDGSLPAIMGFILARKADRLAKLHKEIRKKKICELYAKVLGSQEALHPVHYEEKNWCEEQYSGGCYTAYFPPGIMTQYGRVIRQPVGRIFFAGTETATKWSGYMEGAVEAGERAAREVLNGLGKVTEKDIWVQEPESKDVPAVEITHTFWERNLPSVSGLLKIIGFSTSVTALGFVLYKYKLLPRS

[2] = tested on: IL-1β-induced corneal lymphangiogenesis; assay: IL-1β-induced corneal lymphangiogenesis (anti-LYVE-1 stain); assay type: in vivo, BALB/c mice; settings: 0.3 mg/kg daily i.p.
Method: BALB/c mice were anesthetized by intraperitoneal (i.p.) injection of pentobarbital sodium (60 mg/kg). Hydron pellets (0.3 μl) containing 30 ng mouse IL-1β (401-ML, R&D Systems) were prepared and implanted into the corneas. Pellets were positioned 1 mm from the corneal limbus. Implanted eyes were treated with Bacitracin ophthalmic ointment (E. Fougera & Co.) to prevent infection.
To block CB, mice received daily i.p. injections of a specific CBD. Compound II (R-tech Ueno Ltd., Tokyo, Japan) as described above. A daily dose of 0.3 mg/kg was administered at day 0 and continued until the sixth day after implantation. Two, four and six days after implantation, digital images of the corneal vessels were obtained and recorded using OpenLab software version 2.2.5 (Improvision Inc.) with standardized illumination and contrast and were saved onto disks. The quantitative analysis of new vessel growth in the mouse corneas was performed using Scion Image software (version 4.0.2, Scion Corp.).
Eyes were enucleated and fixed with 4% paraformaldehyde for one hour at 4° C. For whole-mount preparation, the corneas were exposed by removing other portions of the eye (i.e iris, sclera, retina, and conjunctiva). […]

MCP-1 = assay: ELISA of RPE-choroid complex after laser injury: MCP-1; assay type: in vivo, rat; settings: laser-treated animals, 3 days after laser injury; 0.3 mg/kg BW daily i.p.
Method: To block CB, a specific CBD, Compound 11 described above, was used (R-tech Ueno, Ltd., Tokyo, Japan). After laser injury, the inhibitor (0.3 mg/kg BW) was administered to the animals by daily i.p. injections. As a control, some animals received the same regimen for the vehicle solution alone.
The RPE-choroid complex was carefully isolated from eyes 3 days after photocoagulation and placed in 300 μl of lysis buffer supplemented with protease inhibitors and sonicated. The lysate was centrifuged at 15,000 rpm for 15 minutes at 4° C. and the levels of TNF-α, monocyte chemotactic protein (MCP)-1, and intercellular adhesion molecule (ICAM)-1 were determined with rat TNF-α (BI) bioscience), MCP-1 (BD bioscience) and ICAM-1 (R&D Systems, Minneapolis, Minn.) enzyme-linked immunosorbent assay (ELISA) kits according to the manufacturers' protocols. Total protein concentration was determined using a Bio-Rad Protein Assay Kit (Bio-Rad Laboratories Hercules, Calif.) and dilutions of bovine serum albumin (Bio-Rad Laboratories) as standards.

MAO-3 = biological target: T2, MAO-3 (Homo sapiens, UniProt P27338); settings: functionally related monoamine oxidase; read-out: IC50 against MAO-3; cited from earlier work
T2 sequence (P27338 1-520): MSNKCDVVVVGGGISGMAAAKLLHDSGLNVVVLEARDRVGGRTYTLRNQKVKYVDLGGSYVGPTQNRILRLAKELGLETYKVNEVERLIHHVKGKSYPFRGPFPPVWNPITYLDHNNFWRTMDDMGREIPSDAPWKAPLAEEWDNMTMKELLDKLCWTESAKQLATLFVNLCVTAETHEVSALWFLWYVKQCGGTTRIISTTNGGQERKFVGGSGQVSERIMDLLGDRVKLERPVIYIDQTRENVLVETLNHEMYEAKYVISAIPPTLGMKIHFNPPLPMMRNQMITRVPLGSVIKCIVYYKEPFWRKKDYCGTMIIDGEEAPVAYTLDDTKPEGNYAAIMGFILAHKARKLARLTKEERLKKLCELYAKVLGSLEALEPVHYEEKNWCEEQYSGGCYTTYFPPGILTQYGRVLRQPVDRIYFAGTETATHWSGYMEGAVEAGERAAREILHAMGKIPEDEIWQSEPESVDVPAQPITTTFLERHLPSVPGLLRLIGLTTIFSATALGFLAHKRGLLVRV

CC(=O)Nc1nc(CCc2ccc(NC(=N)NN)cc2)c(Cc2ccc(S(C)(=O)=O)cc2)s1 [Compound II]
pIC50 [1]: < 5.00
effect on corneal lymphangiogenesis (in words) [2]: effectively suppresses corneal lymphangiogenesis
protein level of MCP-1 in the RPE-choroid complex (MCP-1): 662 ± 52 pg/mg
pIC50 (MAO-3): < 5.00

From patent US20220079889A1, “USE OF CANNABANOIDS IN THE TREATMENT OF PROLIFERATIVE DIABETIC RETINOPATHY” (VERDANT PHARMACEUTICALS, LLC, priority 2020, published 2022)
